Experimental data as given in US7605175B2, “Inhibitors of cyclin-dependent kinases, compositions and uses related thereto” (GPC Biotech AG, priority 2001, dated 2009).

Tests used:
[1] = system: adriamycin resistant cell line (ADR-res); assay: NCI panel (SRB), adriamycin resistant cell line; format: cell-based; conditions: Homo sapiens
Description: The evaluation of compounds at the National Cancer Institute in their panel of 60 cell lines provides a wealth of information regarding efficacy in a wide range of tumor types and genetic backgrounds. Included within this panel are cell lines derived from leukemia, melanoma and cancers of the lung, colon, brain, ovary, breast, prostate and kidney. Use of this panel provides a measure of the efficacy of compounds in cells with alterations in many genes that are associated with neoplastic transformation including p53 and Her2/Neu as well as those involved in metabolism and those which confer multi-drug resistance. The data generated in these cell lines with the protocol described below can be used to evaluate the activity of compounds.
Cells were grown in RPMI-1640 10% FCS and plated in 96 well micro-titer plates at densities ranging from 5,000 to 40,000 cells/well. The plates were incubated for 24 hours at 37° C., 5% CO2 for 24 hours. […]
The effect of the compound on cellular viability was determined with the Sulforhodamine B (SRB) assay, which measures total protein. […] The bound stain was solubilized with 10 mM trizma base and the absorbance was read on a plate reader at […].

HCT-116 cells = assay: Calcein AM viability assay, HCT-116; format: cell-based; conditions: Homo sapiens, HCT-116, plus 1 mg/ml alpha acidic glycoprotein and 45 mg/ml human serum albumin; read-out: HCT-116 IC50 Protein adjusted
Summary of the method: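 Cells plated (1,000 HCT-116 in RPMI-1640/10% FCS; 4,000 IMR90 in MEM-alpha/10% FCS), adhered overnight, then given 7 doses of compound at 0-250 nM for 72 h at 37 °C. Viability read by Calcein AM fluorescence (ex 485, em 530) after 75 min; IC50 derived.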

IC50 (HCT-116 cells): < 1 µM
Structure (SMILES): CC(C)c1nn(-c2c(Cl)cccc2Cl)c2nc(Cc3ccc(O)c(CN4CCN(C(C)C)CC4)c3)[nH]c(=O)c12 [Compound C]
IC50 [1]: < 0.1 µM
